According to PubChem BioAssay (NCI):
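96-well plates; 48 h exposure; 5 concentrations. Endpoints by linear interpolation between flanking doses. Not reached: highest tested concentration assigned. GI50: concentration for 50% inhibition of growth. TGI: concentration producing complete growth inhibition.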

Legend:
Assay in all cases: NCI anticancer screen, dose series, 48 h
CAKI-1 renal = tested on: CAKI-1 renal
EKVX NSCLC = tested on: EKVX NSCLC
KM12 colon = tested on: KM12 colon
M14 melanoma = tested on: M14 melanoma
NCI-H226 lung = tested on: NCI-H226 lung
OVCAR-8 ovarian = tested on: OVCAR-8 ovarian
SNB-75 CNS = tested on: SNB-75 CNS
T-47D breast = tested on: T-47D breast
U251 CNS = tested on: U251 CNS
UACC-62 melanoma = tested on: UACC-62 melanoma

Structure (SMILES) | GI50 (CAKI-1 renal) [µM] | TGI (CAKI-1 renal) [µM] | GI50 (EKVX NSCLC) [µM] | TGI (EKVX NSCLC) [µM] | GI50 (KM12 colon) [µM] | TGI (KM12 colon) [µM] | GI50 (M14 melanoma) [µM] | TGI (M14 melanoma) [µM] | GI50 (NCI-H226 lung) [µM] | TGI (NCI-H226 lung) [µM] | GI50 (OVCAR-8 ovarian) [µM] | TGI (OVCAR-8 ovarian) [µM] | GI50 (SNB-75 CNS) [µM] | TGI (SNB-75 CNS) [µM] | GI50 (T-47D breast) [µM] | TGI (T-47D breast) [µM] | GI50 (U251 CNS) [µM] | TGI (U251 CNS) [µM] | GI50 (UACC-62 melanoma) [µM] | TGI (UACC-62 melanoma) [µM]
Cc1cccc2nc3cccc(C(=O)NCCNCCNCCNC(=O)c4cccc5nc6cccc(C)c6nc45)c3nc12 | 0.0461 | 23.2 | 0.291 | 16.3 | < 0.01 | 3.42 | < 0.0241 | 1.7 | < 0.0128 | 0.274 | < 0.01 | 1.14 | 0.181 | 1.44 | < 0.0123 | 8.67 | < 0.01 | 1.04 | 0.0137 | 2.01
CC(=O)OC12c3ccccc3-c3ccccc3C1C(C(=O)O)C2(Cl)C(=O)O (stereo not drawn) | – | > 10 | – | > 10 | – | > 10 | – | > 10 | – | > 10 | – | > 10 | – | > 10 | – | > 10 | – | > 10 | – | –
COc1ccc2c(Cc3c4ccccc4cc4ccccc34)cncc2c1O | – | 36.3 | – | 50.1 | – | 8.69 | – | 15.3 | – | 11.7 | – | 5.74 | – | 29.4 | – | > 71.7 | – | 7.71 | – | > 44.2
CC1(C)CCCC(C)(C2CCC3(C)C2C(O)CC2C4(C)CCC(O)C(C)(C)C4C(O)CC23C)O1 (stereo not drawn) | – | 17.6 | – | 32.5 | – | 24.7 | – | 31.7 | – | 40.1 | – | 41.9 | – | 24.6 | – | 28.9 | – | 34.4 | – | 27.5
Cc1ccc(/C=C/C(=N/N=C(N)N)c2ccccc2)cc1 | 8.97 | 25.1 | 10.1 | 28 | 2.97 | 13.2 | 1.67 | 3.95 | 3.09 | 12.6 | 2.98 | 10.9 | 2.04 | 7.41 | 4.3 | 18.1 | 3.1 | 12.5 | 2.65 | 11.9
c1ccc(Nc2nc(-c3ccccn3)cs2)nc1 | 0.0992 | 2.12 | 0.507 | > 56.9 | 0.381 | 15.9 | 0.258 | – | 1 | > 63.1 | 0.395 | > 38.5 | 3.03 | > 100 | 0.698 | > 100 | 0.332 | > 43.2 | 0.48 | > 43
CCC(C)[C@H](NC(=O)NC(=O)NC(=O)CI)C(=O)OC (stereo partly drawn) | 1.41 | 2.78 | 16.7 | 30.6 | 16.6 | 33.2 | 2.47 | 6.8 | 3.84 | 19.1 | 13.6 | 29.3 | 10.3 | 26.1 | 10 | 34.8 | 14.8 | 27.9 | 11.3 | 24.7
C=C1CCC2C3(C)COC(c4c(OC)cccc4OC)OC3CCC2(C)C1C/C=C1/C(=O)OCC1O (stereo not drawn) | 1.57 | 3.48 | 8.47 | 27.3 | 2.21 | 4.99 | 2.96 | 9.01 | 2.42 | 5.81 | 3.09 | 11.5 | 2.55 | 14.5 | 5.43 | 26.9 | 1.91 | 4.36 | 3.32 | 15
Nc1nc2c(nnn2C2OC(CO)C(O)C2O)c(=O)[nH]1 (stereo not drawn) | 0.567 | > 100 | 14.1 | > 100 | 0.97 | > 46.8 | 2.07 | > 100 | 6.31 | > 100 | 1.18 | > 100 | 5.86 | > 100 | 2.87 | > 100 | 2.96 | > 100 | 1.14 | 12.9
COc1cc2nc(-c3ccc(Cl)cc3)cc(OCCCN3CCCC3)c2cc1OC | 0.303 | 4.15 | 1.21 | 12 | 2.46 | 10.2 | 0.402 | 1.51 | 0.898 | 3.21 | 1.19 | 16.1 | 1.73 | 5.09 | 1.02 | 10.5 | 1.79 | 14.5 | 2.03 | 4.57
O=C1CCCCC=C1C[N+](=O)[O-] | 17.9 | 45.8 | 34.5 | > 100 | 45.1 | > 100 | 19.3 | 45 | 26 | 73.3 | 26.6 | > 100 | 25.5 | 68.8 | 26.6 | 88.1 | 33.9 | > 100 | 18.7 | 34.6
O=C1C(=O)c2ccccc2C(O)=C1CCCc1ccc(C2CCCC2)cc1 | 3.15 | 11.8 | 11.7 | 64.7 | 5.1 | 25.1 | 8.86 | 23.7 | 3.77 | 20.5 | 5.8 | 60 | 6.55 | 38.7 | 7.21 | 98 | 5.3 | 33.6 | 3.73 | 18.5
O=C1C(Nc2ccc(Br)cc2)=C(I)C(=O)c2ncccc21 | 0.677 | 1.34 | 3.08 | 9.52 | 2.05 | 8.41 | 0.815 | 1.93 | 0.988 | 2.13 | 0.809 | 1.69 | 1.24 | 7 | 0.954 | 2.24 | 1.32 | 3.98 | 1.16 | 2.96
